# Laboratory results reported in patent US6635637B2, “Cyclic oxyguanidine protease inhibitors” (Dimensional Pharmaceuticals, Inc., priority 2000, dated 2003).
# Structures can show the parent of a compound that is named as a salt.
# Target: T1, human α-thrombin (Homo sapiens, UniProt P00734)
# T1 construct: Purified human α-thrombin; purchased Enzyme Research Laboratories (South Bend, Ind.)
# Experiment: In vitro inhibition of purified thrombin (p-nitroanilide substrate hydrolysis, Ki determination)
# Format: biochemical
# Settings: purified human α-thrombin 0.5 nM; substrate N-succinyl-Ala-Ala-Pro-Arg-p-nitroanilide 32 μM; 37° C.; pH 7.5
# Description: Reagents: All buffer salts were obtained from Sigma Chemical Company (St. Louis, Mo.), and were of the highest purity available. The enzyme substrates, N—N-benzoyl-Phe-Val-Arg-p-nitroanilide (Sigma B7632), N-benzoyl-Ile-Glu-Gly-Arg-p-nitroanilide hydrochloride (Sigma B2291), N-p-Tosyl-Gly-Pro-Lys-p-nitroanilide (Sigma T6140), N-succinyl-Ala-Ala-Pro-Phe-p-nitroanilide (Sigma S7388) and N-CBZ-Val-Gly-Arg-p-nitroanilide (Sigma C7271) were obtained from Sigma. N-succinyl-Ala-Ala-Pro-Arg-p-nitroanilide (BACHEM L-1720) and N-succinyl-Ala-Ala-Pro-Val-p-nitroanilide (BACHEM L-1770) were obtained from BACHEM (King of Prussia, Pa.).
# Human α-thrombin, human factor Xa and human plasmin were obtained from Enzyme Research Laboratories (South Bend, Ind.). Bovine α-chymotrypsin (Sigma C4129), bovine trypsin (Sigma T8642) and human kidney cell urokinase (Sigma U5004) were obtained from Sigma. Human leukocyte elastase was obtained from Elastin Products (Pacific, Mo.).
# Ki Determinations: All assays are based on the ability of the test compound to inhibit the enzyme catalyzed hydrolysis of a peptide p-nitroanilide substrate. […] In general, substrate concentrations are lower than the experimentally determined value for Km. […]
# In a typical Ki determination, into each well of a 96 well plate is pipetted 280 μL of substrate solution, 10 μL of test compound solution, and the plate allowed to thermally equilibrate at 37° C. in a Molecular Devices plate reader for >15 minutes. Reactions were initiated by the addition of a 10 μL aliquot of enzyme and the absorbance increase at 405 nm is recorded for 15 minutes. […] The ratio of the velocity (rate of change in absorbance as a function of time) for a sample containing no test compound is divided by the velocity of a sample containing test compound, and is plotted as a function of test compound concentration. The data are fit to a linear regression, and the value of the slope of the line calculated. The inverse of the slope is the experimentally determined Ki value. […]
row,Ki,SMILES
1,13 nM,"CS(=O)(=O)c1ccccc1S(=O)(=O)Oc1cc(Cl)cc(OCC2CCN(C(=N)N)OC2)c1 (stereo not drawn) [Example 2, 3-[(2-Amidino(1,2-oxazaperhydroin-5-yl))methoxy]-5-chlorophenyl 2-(methylsulfonyl)benzenesulfonate trifluoroacetate]"
2,8 nM,"C=CCN(C(=O)c1cc(Cl)cc(OCC2CCN(C(=N)N)OC2)c1)C1CCCC1 (stereo not drawn) [Example 3, 5-{[5-Chloro-3-(N-cyclopentyl-N-prop-2-enylcarbamoyl)phenoxy]methyl}-1,2-oxazaperhydroine-2-carboxamidine trifluoroacetate]"
3,7 nM,"Cc1cc(OCC2CCN(C(=N)N)OC2)cc(OS(=O)(=O)c2ccccc2S(C)(=O)=O)c1 (stereo not drawn) [Example 1, 3-[(2-Amidino(1,2-oxazaperhydroin-5-yl))methoxy]-5-methylphenyl 2-(methylsulfonyl)benzenesulfonate Trifluoroacetate]"
